{
  "source": "paper PMC6628435",
  "about": "“Chemical Synthesis, Proper Folding, Nav Channel Selectivity Profile and Analgesic Properties of the Spider Peptide Phlotoxin 1” (Toxins, 2019)",
  "test_system": "Nav1.2/β1",
  "test": "Two-electrode voltage-clamp on Xenopus laevis oocytes expressing Nav1.2/β1",
  "assay_type": "cell-based",
  "conditions": "1 µM; voltage of maximum sodium influx, holding −90 mV; oocytes TEVC; n ≥ 3",
  "text": "Using the two-electrode voltage-clamp technique on Xenopus laevis oocytes, the effect of PhlTx1 was also compared on eight different cloned vertebrate Nav channels co-expressed with the β1 subunit (Nav1.1-1.8/β1) and on the neuronal insect Nav channel, para, co-expressed with the tipE subunit (Figure 3 and Figure 4). […] Normalized current-voltage relationships (I-V curve) of Nav1.2/β1 and Nav1.3/β1 channels seemed to be shifted towards more negative potentials when PhlTx1 was applied, but shifts were not statistically significant […] (Figure 4). The activation phase of the other studied Nav channel subtypes was not affected. No obvious alteration in channel availability was observed, except a 5-mV negative shift for Nav1.3/β1, although that was also non-significant (p > 0.05).\nFigure 4 1 µM of PhlTx1 was tested on Nav1.1/β1, Nav1.2/β1, Nav1.3/β1, Nav1.4/β1, Nav1.5/β1, Nav1.6/β1, Nav1.8/β1 and para/tipE (n ≥ 3). Left column: current traces were evoked by a 50-ms depolarization to the voltage of maximum sodium influx, depending on the Nav studied, from a holding potential of −90 mV. At 1 µM PhlTx1, all studied Nav channels, except Nav1.4/β1, were blocked for about 10% (no toxin: *). The current of Nav1.4/β1 was reduced for about 35 ± 5%. Middle column: normalized I-V curves reveal no significant shift of the activation voltage (p > 0.05). […]",
  "note": "Bridge positions count the residues as written; N and C are the ends. Peptide text beside a SMILES is read from it.",
  "data": [
    {"smiles": "CC(C)C[C@@H]1NC(=O)[C@@H](NC(=O)[C@H](C)N)CSSC[C@@H]2NC(=O)[C@@H]3CSSC[C@@H](C(=O)N[C@@H](CCCNC(=N)N)C(=O)N[C@@H](Cc4ccc(O)cc4)C(=O)N[C@@H](CCCCN)C(=O)N[C@@H](CC(C)C)C(=O)N[C@@H](Cc4ccccc4)C(=O)O)NC(=O)[C@H](Cc4c[nH]c5ccccc45)NC(=O)[C@@H]4CCCN4C(=O)[C@H](Cc4ccc(O)cc4)NC(=O)[C@H](CCCCN)NC(=O)[C@H](Cc4c[nH]c5ccccc45)NC(=O)[C@H](CCC(=O)O)NC(=O)[C@H](CSSC[C@H](NC(=O)[C@H](CO)NC(=O)[C@H](CC(=O)O)NC(=O)[C@H](Cc4c[nH]c5ccccc45)NC(=O)[C@H](CCC(N)=O)NC(=O)CNC1=O)C(=O)N[C@@H](CC(=O)O)C(=O)N1CCC[C@H]1C(=O)N[C@@H](CCCCN)C(=O)N[C@@H](C)C(=O)N[C@@H](CO)C(=O)N[C@@H](CCCCN)C(=O)N3)NC(=O)[C@H](C)NC(=O)[C@H](Cc1ccc(O)cc1)NC(=O)[C@H](CC(N)=O)NC(=O)[C@@H]1CCCN1C2=O", "note": "[PhlTx1, Phlotoxin-1] (H-ACLGQWDSCDPKASKCCPNYACEWKYPWCRYKLF-OH; disulfide 2-17, 9-22, 16-29; N-terminus and C-terminus assumed)", "values": [
      {"measurement": "block of sodium current", "value": "about 10%"}
    ]}
  ]
}
